Laboratory results taken from ChEMBL document CHEMBL1921691, “Synthesis and growth regulatory activity of a prototype member of a new family of aminothiol radioprotectors” (Bioorg Med Chem Lett, 2011).
Activity calls are given as the source filed them. The calls are words filed in the database; no cut-off is given here.

Each compound was assayed on Rattus norvegicus (assay: Protection against 17.33 Gy radiation induced-dermatitis in rat compound administered topically 4 times in 2 hrs prior irradiation measured after 13 days). Conditions: not given.
Type: functional, organism-based

Compound | Activity
CNCC(CS)CNC | Active

Species: Homo sapiens
Assay: Antiproliferative activity against log phase culture of human fibroblasts assessed as growth inhibition after 4 days
Type: functional
Conditions: Fibroblast

Compound | growth inhibition (GI)
CCNCCCCNC/C=C(/CS)CNCCCCNCC | Active
CCNCCCCNCCCCNC/C=C(/CS)CNCCCCNCCCCNCC | Active
CCNCCCCNCCCCNCCCCNC/C=C(/CS)CNCCCCNCCCCNCCCCNCC | Active
CCNCCCCNCCCCNCCCCNCCCCNC/C=C(/CS)CNCCCCNCCCCNCCCCNCCCCNCC | Active
CNCC(CS)CNC | Active
